Laboratory results from PubChem BioAssay (NCI).
“And” between values parts separate entries of the source, which are not always exact repeats. Equal values may be shown once.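 Grown in 96-well plates, cells were treated for 48 hours with each compound at five concentrations. Insufficient inhibition: endpoint recorded as highest concentration tested. The concentration for 50% growth inhibition is given as GI50. TGI: concentration producing complete growth inhibition.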

Tests used:
Test in all cases: growth of human tumour cells (NCI), 48 h
[1] = tested on: SK-MEL-28 melanoma
[2] = tested on: HOP-62 NSCLC
[3] = tested on: OVCAR-3 ovarian
[4] = tested on: IGROV1 ovarian
[5] = tested on: NCI-H23 lung
[6] = tested on: OVCAR-5 ovarian
[7] = tested on: SR leukemia
[8] = tested on: M14 melanoma
[9] = tested on: NCI-H226 lung
[10] = tested on: MALME-3M melanoma

SMILES: COC(=O)C12CC3CC(C1)CC(C(=O)OC)(C3)C2
- TGI [1]: > 100 µM
- TGI [2]: > 100 µM
- TGI [3]: > 100 µM
- TGI [4]: > 100 µM
- TGI [5]: > 100 µM
- TGI [6]: > 100 µM
- TGI [7]: > 100 µM
- TGI [8]: > 100 µM

SMILES: CC[O-].CC[O-].O=C1C(c2ccccc2)=C([O-])c2ccccc21.O=C1C(c2ccccc2)=C([O-])c2ccccc21.[Ti+4]
- GI50 [1]: > 100 µM
- TGI [1]: > 100 µM
- GI50 [9]: > 100 µM
- TGI [9]: > 100 µM
- GI50 [2]: > 100 µM
- TGI [2]: > 100 µM
- GI50 [3]: > 100 µM
- TGI [3]: > 100 µM
- GI50 [10]: > 100 µM
- TGI [10]: > 100 µM
- GI50 [4]: > 100 µM
- TGI [4]: > 100 µM
- GI50 [5]: > 100 µM
- TGI [5]: > 100 µM
- GI50 [6]: > 100 µM
- TGI [6]: > 100 µM
- GI50 [8]: > 100 µM
- TGI [8]: > 100 µM

SMILES: O=[N+]([O-])c1ccc(N=Nc2c(O)ccc3ccccc23)cc1
- TGI [1]: > 100 µM
- GI50 [9]: 35.4 µM and > 100 µM
- TGI [9]: > 100 µM
- GI50 [2]: 14.5 µM and > 100 µM
- TGI [2]: 37.4 µM and > 100 µM
- TGI [3]: > 100 µM
- TGI [4]: > 100 µM
- GI50 [5]: 42.9 µM and > 100 µM
- TGI [5]: > 100 µM
- TGI [6]: > 100 µM
- TGI [7]: > 100 µM
- GI50 [8]: 43.6 µM and > 100 µM
- TGI [8]: > 100 µM

SMILES: COc1ccc2c(c1)CCc1[nH]c3ccccc3c1CCCC2
- TGI [1]: > 10 µM
- TGI [2]: > 10 µM
- TGI [3]: > 10 µM
- TGI [10]: > 10 µM
- TGI [4]: > 10 µM
- TGI [5]: > 10 µM
- TGI [6]: > 10 µM
- TGI [7]: > 10 µM
- TGI [8]: > 10 µM

SMILES: COc1cc(C(=O)C/C(CCC(=O)Nc2ccc(Cl)cc2C)=N/NC(=O)C(N)=O)ccc1O
- TGI [9]: > 100 µM
- TGI [2]: > 100 µM
- TGI [3]: > 100 µM
- TGI [10]: > 100 µM
- TGI [4]: > 100 µM
- TGI [5]: > 100 µM
- TGI [6]: > 100 µM
- TGI [8]: > 100 µM

SMILES: O=C([O][Hg][CH2]C1COCC([CH2][Hg][O]C(=O)c2ccccc2)O1)c1ccccc1 (configuration not stated)
- GI50 [1]: 6.86 µM
- TGI [1]: 19.6 µM
- GI50 [9]: 20.8 µM
- TGI [9]: 41.9 µM
- GI50 [2]: 15.3 µM
- TGI [2]: 31.1 µM
- GI50 [3]: 1.58 µM
- TGI [3]: 2.93 µM
- GI50 [4]: 2.1 µM
- TGI [4]: 4.17 µM
- GI50 [5]: 16.1 µM
- TGI [5]: 36.8 µM
- GI50 [6]: 19.2 µM
- TGI [6]: 35.9 µM
- GI50 [8]: 6.01 µM
- TGI [8]: 19.9 µM

SMILES: Cc1ccc(NC(=O)CC(=O)n2nc(-c3ccccc3)c(N=Nc3ccccc3Cl)c2-c2ccccc2)cc1
- TGI [1]: > 100 µM
- TGI [2]: > 100 µM
- GI50 [3]: > 100 µM
- TGI [3]: > 100 µM
- TGI [10]: > 100 µM
- GI50 [4]: > 100 µM
- TGI [4]: > 100 µM
- TGI [5]: > 100 µM
- TGI [6]: > 100 µM
- TGI [7]: > 100 µM
- TGI [8]: > 100 µM

SMILES: O=C([CH-]C(=O)c1ccccc1)c1ccccc1.O=C([CH-]C(=O)c1ccccc1)c1ccccc1.O=C([CH-]C(=O)c1ccccc1)c1ccccc1.[OH3+].[Y+3]
- GI50 [1]: 10.8 µM
- TGI [1]: 40.2 µM
- GI50 [2]: 4.5 µM
- TGI [2]: 22.5 µM
- GI50 [3]: 5 µM
- TGI [3]: 17.3 µM
- GI50 [10]: 14 µM
- TGI [10]: 47.2 µM
- GI50 [4]: 13.6 µM
- TGI [4]: 62.4 µM
- GI50 [5]: 3.51 µM
- TGI [5]: 18.9 µM
- GI50 [6]: 16.9 µM
- TGI [6]: 66.1 µM
- GI50 [8]: 9.36 µM
- TGI [8]: 22 µM

SMILES: CCCN1CCN(c2ccc3nc(-c4ccc5nc(-c6cc(OC)ccc6OC)[nH]c5c4)[nH]c3c2)CC1
- GI50 [1]: 18.9 µM
- TGI [1]: 35.9 µM
- GI50 [9]: 20.2 µM
- TGI [9]: 46 µM
- GI50 [3]: 1.84 µM
- TGI [3]: 3.39 µM
- GI50 [10]: 20.3 µM
- TGI [10]: 40.9 µM
- GI50 [4]: 13.5 µM
- TGI [4]: 30.3 µM
- GI50 [5]: 1.93 µM
- TGI [5]: 3.85 µM
- GI50 [6]: 17.8 µM
- TGI [6]: 34.2 µM
- GI50 [7]: 2.55 µM
- TGI [7]: 5.54 µM
- GI50 [8]: 1.78 µM
- TGI [8]: 3.31 µM

SMILES: Cc1cc(C)nc(NS(=O)(=O)c2ccc(Nc3c4ccc(Cl)cc4nc4c(C(=O)Nc5ccc(S(=O)(=O)N=C(N)N)cc5)cccc34)cc2)n1
- TGI [1]: > 100 µM
- TGI [2]: > 100 µM
- TGI [3]: > 100 µM
- TGI [10]: > 100 µM
- TGI [5]: > 100 µM
- TGI [6]: > 100 µM
- TGI [8]: > 100 µM

SMILES: CCc1nc(N)nc(C(=O)NCCNC(=O)c2nc(N)nc(CC)c2C)c1C
- TGI [1]: > 100 µM
- TGI [9]: > 100 µM
- TGI [2]: > 100 µM
- TGI [3]: > 100 µM
- TGI [10]: > 100 µM
- TGI [4]: > 100 µM
- TGI [5]: > 100 µM
- TGI [6]: > 100 µM
- TGI [8]: > 100 µM

SMILES: CC(C)C1CCC/C=C/C=C/C=C/C=C/C(OC2OC(C)C(O)C(N)C2O)CC2OC(O)(CC(O)CC(O)C(O)CCC(=O)O1)CC(O)C2C(=O)O (configuration not stated)
- TGI [1]: > 52.5 µM
- TGI [2]: > 52.5 µM
- TGI [3]: > 52.5 µM
- TGI [10]: > 52.5 µM
- TGI [4]: > 52.5 µM
- TGI [7]: > 52.5 µM
- TGI [8]: > 52.5 µM

SMILES: CC[Si](CC)(CC)OC[C@]1([C@@H]2COC(C)(C)O2)CC=CC(=O)O1
- GI50 [1]: 19.8 µM
- TGI [1]: 85.3 µM
- GI50 [2]: 57.8 µM
- TGI [2]: > 100 µM
- GI50 [3]: 32.6 µM
- TGI [3]: > 100 µM
- GI50 [10]: 18.1 µM
- TGI [10]: 44.4 µM
- GI50 [5]: 23.3 µM
- TGI [5]: > 100 µM
- GI50 [6]: > 100 µM
- TGI [6]: > 100 µM
- GI50 [7]: 23 µM
- TGI [7]: 95.1 µM
- GI50 [8]: 33 µM
- TGI [8]: > 100 µM

SMILES: Cc1cc(N2CCN(c3ccnc4cc(Cl)ccc34)CC2)nc(NC2CCCCC2)n1
- GI50 [9]: 3.23 µM
- TGI [9]: 15 µM
- GI50 [2]: 2.02 µM
- TGI [2]: 4.61 µM
- GI50 [3]: 1.9 µM
- TGI [3]: 3.9 µM
- GI50 [10]: 1.89 µM
- TGI [10]: 3.83 µM
- GI50 [4]: 2.35 µM
- TGI [4]: 5.35 µM
- GI50 [5]: 3.04 µM
- TGI [5]: 8.37 µM
- GI50 [7]: 1.93 µM
- TGI [7]: 4.73 µM
- GI50 [8]: 1.7 µM
- TGI [8]: 3.36 µM

SMILES: CC(=O)/C(=C\C1=CCCO1)C(=O)Nc1ccccc1C
- TGI [9]: > 100 µM
- TGI [2]: > 100 µM
- TGI [3]: > 100 µM
- TGI [10]: > 100 µM
- TGI [4]: > 100 µM
- TGI [5]: > 100 µM
- TGI [6]: > 100 µM
- TGI [7]: > 100 µM
- TGI [8]: > 100 µM

SMILES: O=C1NC2CCC(C2)C1c1ccccc1 (configuration not stated)
- TGI [1]: > 100 µM
- TGI [9]: > 100 µM
- TGI [3]: > 100 µM
- TGI [10]: > 100 µM
- TGI [4]: > 100 µM
- TGI [5]: > 100 µM
- TGI [6]: > 100 µM
- TGI [7]: > 100 µM
- TGI [8]: > 100 µM

SMILES: O=S(=O)(c1ccc(N=C2NN=C(c3c[nH]c4ccccc34)CS2)cc1)N1CCOCC1
- GI50 [1]: 37.7 µM
- TGI [1]: > 100 µM
- GI50 [9]: 7.74 µM
- TGI [9]: > 100 µM
- GI50 [3]: 18.8 µM
- TGI [3]: > 100 µM
- GI50 [10]: 34.8 µM
- TGI [10]: > 100 µM
- GI50 [4]: > 100 µM
- TGI [4]: > 100 µM
- GI50 [5]: 18.3 µM
- TGI [5]: > 100 µM
- GI50 [6]: 49.1 µM
- TGI [6]: > 100 µM
- GI50 [7]: 4.81 µM
- TGI [7]: > 100 µM
- TGI [8]: > 100 µM
